Starred links: 1 amine or outer side, 2 acyl side, 3 side chain; linkers in the order of their positions; H or OH if unused. Positions of bridges follow the written chain, without caps; N, C: chain ends. Non-standard residues stand in square brackets, D forms with d. Residues, ends and D or L forms follow the SMILES beside them. Groups on a side chain read outwards from the residue. *: point of attachment. Phe(3-OCH2COOH) = N[C@@H](Cc1cccc(OCC(=O)O)c1)C(=O)O; Phe(4-COOH) = N[C@@H](Cc1ccc(C(=O)O)cc1)C(=O)O; Piperazinyl(4-CH2COOH) = O=C(O)CN1CCN(*)CC1; 1Nal = N[C@@H](Cc1cccc2ccccc12)C(=O)O; Gly(decyl) = CCCCCCCCCC[C@H](N)C(=O)O; AEF = NCCOc1ccc(C[C@H](N)C(=O)O)cc1; X1 = CCCCCCC[C@H](N[*:1])C(=O)[*:2]; NMeF = CN[C@@H](Cc1ccccc1)C(=O)O; NMeE = CN[C@@H](CCC(=O)O)C(=O)O; Cha = N[C@@H](CC1CCCCC1)C(=O)O; NMeA = CN[C@@H](C)C(=O)O; CO = O=C([*:1])[*:2]; Sar = CNCC(=O)O

For one assay, the target named is T1, GDF-11 (Homo sapiens, UniProt O95390).
T1 construct: purchased R&D systems 1958-GD-G8/CF
T1 sequence (O95390 299-407): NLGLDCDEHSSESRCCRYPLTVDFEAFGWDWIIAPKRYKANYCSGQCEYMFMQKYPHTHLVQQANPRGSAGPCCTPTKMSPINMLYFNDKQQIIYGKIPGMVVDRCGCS
Briefly: HepG2 reporter gene assay, Evaluation Procedure (2): 2-concentrations assay, GDF-11 inhibition. As to conditions: GDF-11 10 ng/mL; for inhibition at 0.03 µM: HepG2, peptide 30nM, read-out: GDF11 Inhibition 30nM; for inhibition at 0.1 µM: HepG2, peptide 100nM, read-out: GDF11 Inhibition 100nM. It is filed as cell-based. The method in brief: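 HepG2 cells carrying the transfected pGL3(CAGA)12-luc reporter, a pGL3 vector with luciferase placed downstream of 12 CAGA repeats, were stimulated with GDF-11 at a final 10 ng/mL together with test peptide. Blank wells received no GDF-11 and no peptide. Plates were incubated 20 to 24 hours at 37°C with 5% CO2. Luminescence from One-Glo substrate was read to calculate percent inhibition.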

The target in the next assay is T2, Myostatin (Homo sapiens, UniProt O14793).
T2 construct: active myostatin (also called mature myostatin) is a homodimer consisting of two C-terminal growth factor domains; purchased R&D systems 788-G8/CF
T2 sequence (O14793 267-375): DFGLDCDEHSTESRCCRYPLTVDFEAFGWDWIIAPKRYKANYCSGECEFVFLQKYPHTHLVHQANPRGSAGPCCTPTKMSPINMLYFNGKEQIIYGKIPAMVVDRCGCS
Kind of assay: HepG2 reporter gene assay, Evaluation Procedure (2): 2-concentrations assay, myostatin inhibition. It is filed as cell-based. As to conditions: Myostatin 10 ng/mL, HepG2; for inhibition at 0.03 µM: peptide 30nM, read-out: Myostatin Inhibition 30nM; for inhibition at 0.1 µM: peptide 100nM, read-out: Myostatin Inhibition 100nM. The essentials: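 HepG2 cells (HB-8065, ATCC) carrying the transfected pGL3(CAGA)12-luc reporter plasmid were treated with myostatin (788-G8/CF, R&D systems) at a final concentration of 10 ng/mL plus peptide and incubated at 37°C, 5% CO2 for 20 to 24 hours. Luminescence was read after adding PBS mixed 1:1 with One-Glo substrate, and inhibition rate was calculated.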
Background: A reporter such as luciferase makes a cellular process visible.

`CCCCCCCCCC[C@@H]1NC(=O)[C@H](Cc2ccccc2)N(C)C(=O)[C@H](CCCNC(=N)N)NC(=O)[C@H](Cc2ccc(C(=O)O)cc2)NC(=O)[C@H](Cc2cccc(OCC(=O)O)c2)NC(=O)CN(C)C(=O)[C@H]([C@@H](C)CC)NC(=O)[C@H](Cc2ccccc2)N(C)C(=O)[C@H](Cc2ccc(O)cc2)NC(=O)[C@H](Cc2c[nH]c3ccccc23)NC(=O)[C@H](C)NC(=O)[C@H](CCCCNC(=O)N2CCN(CC(=O)O)CC2)NC(=O)CSC[C@H](C(=O)N2CCN(CC(=O)O)CC2)NC(=O)[C@H](Cc2ccccc2)N(C)C(=O)[C@H](C)N(C)C1=O` [Myostatin_99_v263] ({CH2CO}-K([CO-Piperazinyl(4-CH2COOH)])AWY[NMeF]I[Sar][Phe(3-OCH2COOH)][Phe(4-COOH)]R[NMeF][Gly(decyl)][NMeA][NMeF][dC]-{Piperazinyl(4-CH2COOH)}; thioether N-15): on GDF-11, the inhibition at 0.03 µM stood at 8% and the inhibition at 0.1 µM was 56%. Besides, on Myostatin, the inhibition at 0.03 µM was found to be 100% and the inhibition at 0.1 µM is 100%.

`CCCCCCCCCC[C@@H]1NC(=O)[C@H](Cc2ccccc2)N(C)C(=O)[C@H](CCCNC(=N)N)NC(=O)[C@H](Cc2ccc(C(=O)O)cc2)NC(=O)[C@H](Cc2cccc(OCC(=O)O)c2)NC(=O)CN(C)C(=O)[C@H]([C@@H](C)CC)NC(=O)[C@H](Cc2ccccc2)N(C)C(=O)[C@H](Cc2ccc(O)cc2)NC(=O)[C@H](Cc2c[nH]c3ccccc23)NC(=O)[C@@H](CCCCNC(=O)N2CCN(CC(=O)O)CC2)NC(=O)[C@H](C)NC(=O)CSC[C@H](C(=O)N2CCN(CC(=O)O)CC2)NC(=O)[C@H](Cc2ccccc2)N(C)C(=O)[C@H](C)N(C)C1=O` [Myostatin_99_v264] ({CH2CO}-A[dK]([CO-Piperazinyl(4-CH2COOH)])WY[NMeF]I[Sar][Phe(3-OCH2COOH)][Phe(4-COOH)]R[NMeF][Gly(decyl)][NMeA][NMeF][dC]-{Piperazinyl(4-CH2COOH)}; thioether N-15): the inhibition at 0.03 µM is 24% at GDF-11 and 100% at Myostatin. In addition, the values for the inhibition at 0.1 µM on GDF-11 and on Myostatin were 72% and 100%, respectively.

For `CCCCCCCCCC[C@@H]1NC(=O)[C@H](CC2CCCCC2)NC(=O)[C@H](CCCNC(=N)N)NC(=O)[C@H](Cc2ccc(C(=O)O)cc2)NC(=O)[C@H](CCCCNC(=O)N2CCN(CC(=O)O)CC2)NC(=O)CN(C)C(=O)[C@H]([C@@H](C)CC)NC(=O)[C@H](Cc2ccccc2)N(C)C(=O)[C@H](Cc2ccc(O)cc2)NC(=O)[C@H](Cc2c[nH]c3ccccc23)NC(=O)[C@H](C)NC(=O)[C@H](CCCCNC(=O)N2CCN(CC(=O)O)CC2)NC(=O)CSC[C@H](C(=O)N2CCN(CC(=O)O)CC2)NC(=O)[C@H](Cc2ccccc2)N(C)C(=O)[C@H](C)N(C)C1=O` [Myostatin_99_v267] ({CH2CO}-K([CO-Piperazinyl(4-CH2COOH)])AWY[NMeF]I[Sar]K([CO-Piperazinyl(4-CH2COOH)])[Phe(4-COOH)]R[Cha][Gly(decyl)][NMeA][NMeF][dC]-{Piperazinyl(4-CH2COOH)}; thioether N-15), at GDF-11, the inhibition at 0.03 µM turned out to be 24% and the inhibition at 0.1 µM amounted to 64%. In addition, at Myostatin, the inhibition at 0.03 µM was determined as 100% and the inhibition at 0.1 µM amounted to 100%.

Turning to `CCCCCCCCCC[C@@H]1NC(=O)[C@H](CC2CCCCC2)NC(=O)[C@H](CCCNC(=N)N)NC(=O)[C@H](Cc2ccc(C(=O)O)cc2)NC(=O)[C@H](CCCCNC(=O)N2CCN(CC(=O)O)CC2)NC(=O)CN(C)C(=O)[C@H]([C@@H](C)CC)NC(=O)[C@H](Cc2ccccc2)N(C)C(=O)[C@H](Cc2ccc(O)cc2)NC(=O)[C@H](Cc2c[nH]c3ccccc23)NC(=O)[C@@H](CCCCNC(=O)N2CCN(CC(=O)O)CC2)NC(=O)[C@H](C)NC(=O)CSC[C@H](C(=O)N2CCN(CC(=O)O)CC2)NC(=O)[C@H](Cc2ccccc2)N(C)C(=O)[C@H](C)N(C)C1=O` [Myostatin_99_v268] ({CH2CO}-A[dK]([CO-Piperazinyl(4-CH2COOH)])WY[NMeF]I[Sar]K([CO-Piperazinyl(4-CH2COOH)])[Phe(4-COOH)]R[Cha][Gly(decyl)][NMeA][NMeF][dC]-{Piperazinyl(4-CH2COOH)}; thioether N-15), on GDF-11, the inhibition at 0.03 µM is 65% and the inhibition at 0.1 µM came out at 92%. Also, at Myostatin, the inhibition at 0.03 µM was 100% and the inhibition at 0.1 µM stood at 100%.

For the compound `CCCCCCCCCC[C@@H]1NC(=O)[C@H](CC2CCCCC2)NC(=O)[C@H](CCCNC(=N)N)NC(=O)[C@H](Cc2ccc(C(=O)O)cc2)NC(=O)[C@H](CCCCNC(=O)N2CCN(CC(=O)O)CC2)NC(=O)CN(C)C(=O)[C@H]([C@@H](C)CC)NC(=O)[C@H](Cc2ccccc2)N(C)C(=O)[C@H](Cc2ccc(O)cc2)NC(=O)[C@H](Cc2c[nH]c3ccccc23)NC(=O)[C@H](C)NC(=O)[C@H](C)NC(=O)CSC[C@H](C(=O)N2CCN(CC(=O)O)CC2)NC(=O)[C@H](Cc2ccccc2)N(C)C(=O)[C@H](CCC(=O)O)N(C)C1=O` [Myostatin_99_v269] ({CH2CO}-AAWY[NMeF]I[Sar]K([CO-Piperazinyl(4-CH2COOH)])[Phe(4-COOH)]R[Cha][Gly(decyl)][NMeE][NMeF][dC]-{Piperazinyl(4-CH2COOH)}; thioether N-15), the inhibition at 0.03 µM turned out to be 3% at GDF-11 and 100% on Myostatin. Further, the inhibition at 0.1 µM at GDF-11 came to 59%; at Myostatin it was 100%.

As for `CCCCCCC[C@@H]1NC(=O)[C@H](Cc2ccccc2)N(C)C(=O)[C@H](CCCNC(=N)N)NC(=O)[C@H](Cc2ccc(C(=O)O)cc2)NC(=O)[C@H](Cc2cccc(OCC(=O)O)c2)NC(=O)CN(C)C(=O)[C@H]([C@@H](C)CC)NC(=O)[C@H](Cc2ccccc2)N(C)C(=O)[C@H](Cc2ccc(OCCN)cc2)NC(=O)[C@H](Cc2c[nH]c3ccccc23)NC(=O)[C@H](C)NC(=O)[C@H](C)NC(=O)CSC[C@H](C(=O)N2CCN(CC(=O)O)CC2)NC(=O)[C@H](Cc2ccccc2)N(C)C(=O)[C@H](C)N(C)C1=O` [Myostatin_99_v299] ({CH2CO}-AAW[AEF][NMeF]I[Sar][Phe(3-OCH2COOH)][Phe(4-COOH)]R[NMeF][X1][NMeA][NMeF][dC]-{Piperazinyl(4-CH2COOH)}; thioether N-15), the inhibition at 0.03 µM at GDF-11 was determined as 0%; on Myostatin, 93%. Moreover, the inhibition at 0.1 µM was 0% at GDF-11 and 99% on Myostatin.

For `CCCCCCC[C@@H]1NC(=O)[C@H](Cc2ccccc2)N(C)C(=O)[C@H](CCCNC(=N)N)NC(=O)[C@H](Cc2ccc(C(=O)O)cc2)NC(=O)[C@H](Cc2cccc(OCC(=O)O)c2)NC(=O)CN(C)C(=O)[C@H]([C@@H](C)CC)NC(=O)[C@H](Cc2ccccc2)N(C)C(=O)[C@H](Cc2cccc3ccccc23)NC(=O)[C@H](Cc2c[nH]c3ccccc23)NC(=O)[C@H](C)NC(=O)[C@H](C)NC(=O)CSC[C@H](C(=O)N2CCN(CC(=O)O)CC2)NC(=O)[C@H](Cc2ccccc2)N(C)C(=O)[C@H](C)N(C)C1=O` [Myostatin_99_v300] ({CH2CO}-AAW[1Nal][NMeF]I[Sar][Phe(3-OCH2COOH)][Phe(4-COOH)]R[NMeF][X1][NMeA][NMeF][dC]-{Piperazinyl(4-CH2COOH)}; thioether N-15), the values for the inhibition at 0.03 µM on GDF-11 and on Myostatin were 0% and 81%, respectively. Further, the inhibition at 0.1 µM at GDF-11 stood at 0%; at Myostatin, 97%.

In general, inhibition refers to the share of the control response that was lost under treatment.

The record behind these values is patent EP4786487A1, “PEPTIDE” (Peptidream Inc, priority 2023, dated 2025).
